We go through six compounds from patent publication US20160114000A1 (Merck Sharp & Dohme, published 2016).

Test [1] concerns the target T1, human GCGR (Homo sapiens, UniProt P47871).
T1 construct: expressed in transfected cells; grown under Geneticin and Hygromycin selection
The test can be described thus: cAMP protocol, cells expressing human GCGR. The class given is cell-based. As to conditions: for hGCGR/hGLP1R (hTone): ratio of EC50 at human GCGR to EC50 at human GLP1R; for EC50: cAMP production, 20% human serum in assay buffer. Background: cAMP levels reflect the balance of adenylyl cyclase and phosphodiesterase activity.
Description: The cAMP protocol was as follows.
(§1) Peptides were dissolved in 100% DMSO and serially diluted to generate 11 point titrations. The peptide solutions were then transferred into 384-well assay plates (150 nL/well). Assay ready frozen cells expressing human GLP-1R or human GCGR were suspended in growth media consisting of DMEM/F12 medium (GIBCO), 10% FBS (GIBCO), lx P/S (GIBCO), 800 μg/mL Geneticin (GIBCO), and 300 μg/mL Hygromycin (Invitrogen). Cells were then diluted in assay buffer consisting of PBS (GIBCO), 7.5% BSA (Perkin Elmer), 100 μM RO 20-1724 (Sigma), and 20% human serum (MP Biomedical). The cell suspensions (15 μL) were then added to the assay plates containing the peptide solutions (30,000 cells/well for human GCGR; 20,000 cells/well for GLP1R). The cells were incubated for 1 hour at room temperature in the dark. Production of cAMP was determined using HitHunter™ cAMPXS kits (DiscoverX). ED buffer (20 μL) was then added to each well and the plates were incubated for 1 hour at room temperature in the dark. Subsequently, EA buffer (20 μL) was added to each well, and the plates were incubated for 1-18 hours at room temperature in the dark. Luminescence was measured using an EnVision Multilabel plate reader (Perkin Elmer). EC50 values were calculated using ADA data analyzer software.

Test [2] has as its system diet-induced obese (DIO) mice (strain C57Bl6/NTac). The test is described as follows: Cumulative body weight change (grams) in DIO mice, Example 18. As to conditions: day 9; for weight loss: 9 nmol/kg daily. In kind it is in vivo. The procedure: Mice were administered a vehicle control or a dose of a peptide daily for nine days. […] The peptide of SEQ ID NO: 9 was administered at doses of 9 and 25 nmol/kg. Cumulative body weight change (grams) was measured each day of the study except on day 3. Results are shown in FIG. 1 and are expressed as mean±SEM.

For test [3], the system named is DIO mice (strain C57Bl6/NTac). The test is described as follows: Body weight change (%) relative to vehicle in DIO mice, second study, Example 19. In kind it is in vivo. As to conditions: eight days. How it is done: In addition, the peptide of SEQ ID NO: 8 was administered at 15 nmol/kg, while the peptide of SEQ ID NOs: 10 and 11 were administered at 3 nmol/kg. Body weight was measured daily for eight days and body weight change is expressed as percent relative to vehicle (FIG. 2).

The test system of test [4] is DIO mice (strain C57Bl6/NTac). The test is described as follows: Ambient glucose levels in DIO mice, Example 21. In kind it is in vivo. As to conditions: for changes in ambient glucose: after 9 days of dosing. How it is done:
In addition to cumulative body weight change, ambient glucose levels of the DIO mice (strain C57Bl6/NTac) were measured periodically throughout the study.

Test [5] addresses T2, human GLP-1R (Homo sapiens, UniProt P43220).
T2 construct: expressed in transfected cells; grown under Geneticin and Hygromycin selection
The test is described as follows: cAMP protocol, cells expressing human GLP-1R. As to conditions: cAMP production, 20% human serum in assay buffer; read-out: GLPR1 EC50 (nM) human. In kind it is cell-based.
Description: The cAMP protocol was as follows.
as §1

The structures appear in SMILES notation. *1 amine or outer side, *2 acyl side, *3 side chain or, on linkers, in order; H or OH if unused. Where a SMILES comes first, the peptide text is derived from it. Side-chain parts run from the residue outwards. [ ]: non-standard residue; d: D form. The star is where a group is joined. Phe(4-CH2NH2) = NCc1ccc(C[C@H](N)C(=O)O)cc1; γGlu = O=C(O)[C@H](CCC(=O)[*:2])N[*:1]; Palmitoyl = CCCCCCCCCCCCCCCC(=O)*

T1 sequence (P47871 26-477): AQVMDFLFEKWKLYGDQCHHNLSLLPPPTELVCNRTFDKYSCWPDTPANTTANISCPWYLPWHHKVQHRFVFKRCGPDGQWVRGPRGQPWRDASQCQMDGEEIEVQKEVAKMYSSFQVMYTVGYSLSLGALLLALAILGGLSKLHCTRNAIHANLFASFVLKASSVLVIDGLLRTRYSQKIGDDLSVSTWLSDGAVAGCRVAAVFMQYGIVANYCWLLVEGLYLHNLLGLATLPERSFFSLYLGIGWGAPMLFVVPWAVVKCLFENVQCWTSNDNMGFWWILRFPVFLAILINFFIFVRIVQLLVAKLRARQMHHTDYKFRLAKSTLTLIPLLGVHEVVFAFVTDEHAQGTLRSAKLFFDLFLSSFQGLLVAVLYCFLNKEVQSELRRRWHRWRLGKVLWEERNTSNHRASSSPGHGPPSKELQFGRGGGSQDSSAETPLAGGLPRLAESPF
T2 sequence (P43220 24-463): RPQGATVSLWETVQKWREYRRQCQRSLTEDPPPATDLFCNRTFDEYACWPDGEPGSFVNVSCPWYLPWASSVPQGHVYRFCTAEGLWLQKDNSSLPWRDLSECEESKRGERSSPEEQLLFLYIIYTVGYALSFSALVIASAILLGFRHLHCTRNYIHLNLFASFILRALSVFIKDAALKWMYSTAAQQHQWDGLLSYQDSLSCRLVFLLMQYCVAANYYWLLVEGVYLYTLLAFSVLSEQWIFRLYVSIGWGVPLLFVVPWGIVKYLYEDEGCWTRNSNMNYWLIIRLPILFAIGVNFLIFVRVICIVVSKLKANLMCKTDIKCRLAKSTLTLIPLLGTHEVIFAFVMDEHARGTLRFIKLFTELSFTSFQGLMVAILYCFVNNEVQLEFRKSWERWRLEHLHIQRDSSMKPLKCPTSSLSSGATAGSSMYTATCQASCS

Take `CCCCCCCCCCCCCCCC(=O)N[C@@H](CCC(=O)NCCCC[C@H](NC(=O)[C@H](CC(=O)O)NC(=O)[C@H](CO)NC(=O)[C@@H](NC(=O)[C@H](Cc1ccccc1)NC(=O)[C@@H](NC(=O)CNC(=O)[C@H](CCC(N)=O)NC(=O)[C@@H](CO)NC(=O)[C@@H](N)Cc1c[nH]cn1)[C@@H](C)O)[C@@H](C)O)C(=O)N[C@@H](CO)C(=O)N[C@@H](CCCCN)C(=O)N[C@@H](Cc1ccc(O)cc1)C(=O)N[C@@H](CC(C)C)C(=O)N[C@@H](CC(=O)O)C(=O)N[C@@H](C)C(=O)N[C@@H](CCCNC(=N)N)C(=O)N[C@@H](C)C(=O)N[C@@H](C)C(=O)N[C@@H](CCC(N)=O)C(=O)N[C@@H](CC(=O)O)C(=O)N[C@@H](Cc1ccccc1)C(=O)N[C@H](C(=O)N[C@@H](CCC(N)=O)C(=O)N[C@@H](Cc1c[nH]c2ccccc12)C(=O)N[C@@H](CC(C)C)C(=O)N[C@@H](CC(C)C)C(=O)N[C@@H](CC(=O)O)C(=O)N[C@H](C(N)=O)[C@@H](C)O)C(C)C)C(=O)O` [SEQ ID NO: 6]: the “hGCGR/hGLP1R (hTone)” value in test [1] was 0.88. The same compound came in with a weight loss in test [2] of 10.5 grams. Besides, the “weight loss, percent relative to vehicle” value in test [3] (9 nmol/kg daily) was “approximately 20%”. Also, the “decrease in ambient glucose compared to vehicle” value (shortened to “decrease in ambient glucose”) in test [4] (9 nmol/kg, day 7 of dosing) is -60 mg/dL.
In general, EC50 refers to the concentration giving half of the maximal effect. As to `CCCCCCCCCCCCCCCC(=O)N[C@@H](CCC(=O)NCCCC[C@H](NC(=O)[C@H](CC(=O)O)NC(=O)[C@H](CO)NC(=O)[C@@H](NC(=O)[C@H](Cc1ccccc1)NC(=O)[C@@H](NC(=O)CNC(=O)[C@H](CCC(N)=O)NC(=O)[C@@H](CO)NC(=O)[C@@H](N)Cc1c[nH]cn1)[C@@H](C)O)[C@@H](C)O)C(=O)N[C@@H](CO)C(=O)N[C@@H](CCCCN)C(=O)N[C@@H](Cc1ccc(O)cc1)C(=O)N[C@@H](CC(C)C)C(=O)N[C@@H](CC(=O)O)C(=O)N[C@H](C(=O)N[C@@H](CCCNC(=N)N)C(=O)N[C@@H](C)C(=O)N[C@@H](C)C(=O)N[C@@H](CCC(N)=O)C(=O)N[C@@H](CC(=O)O)C(=O)N[C@@H](Cc1ccccc1)C(=O)N[C@H](C(=O)N[C@@H](CCC(N)=O)C(=O)N[C@@H](Cc1c[nH]c2ccccc12)C(=O)N[C@@H](CC(C)C)C(=O)N[C@@H](CC(C)C)C(=O)N[C@@H](CC(=O)O)C(=O)N[C@H](C(N)=O)[C@@H](C)O)C(C)C)C(C)C)C(=O)O` [SEQ ID NO: 7] (H-H[dS]QGTFTSDK([γGlu-Palmitoyl])SKYLDVRAAQDFVQWLLDT-NH2; N-terminus assumed), in test [1], it took 0.041 nM to reach a half-maximal effect (EC50) and the “hGCGR/hGLP1R (hTone)” value was determined as 0.30. Also, the EC50 in test [5] was 0.16 nM. The weight loss in test [2] was about 3 grams. In addition, the “weight loss, percent relative to vehicle” value in test [3] (9 nmol/kg daily) was “approximately 5%”. Also, the “changes in ambient glucose” value in test [4] (9 nmol/kg) is reported as “did not exhibit significant changes”.
Turning to `CCCCCCCCCCCCCCCC(=O)N[C@@H](CCC(=O)N[C@@H](CCC(=O)NCCCC[C@H](NC(=O)[C@H](CC(=O)O)NC(=O)[C@H](CO)NC(=O)[C@@H](NC(=O)[C@H](Cc1ccccc1)NC(=O)[C@@H](NC(=O)CNC(=O)[C@H](CCC(N)=O)NC(=O)[C@@H](CO)NC(=O)[C@@H](N)Cc1c[nH]cn1)[C@@H](C)O)[C@@H](C)O)C(=O)N[C@@H](CO)C(=O)N[C@@H](CCCCN)C(=O)N[C@@H](Cc1ccc(O)cc1)C(=O)N[C@@H](CC(C)C)C(=O)N[C@@H](CC(=O)O)C(=O)N[C@H](C(=O)N[C@@H](CCCNC(=N)N)C(=O)N[C@@H](C)C(=O)N[C@@H](C)C(=O)N[C@@H](CCC(N)=O)C(=O)N[C@@H](CC(=O)O)C(=O)N[C@@H](Cc1ccccc1)C(=O)N[C@H](C(=O)N[C@@H](CCC(N)=O)C(=O)N[C@@H](Cc1c[nH]c2ccccc12)C(=O)N[C@@H](CC(C)C)C(=O)N[C@@H](CC(C)C)C(=O)N[C@@H](CC(=O)O)C(=O)N[C@H](C(N)=O)[C@@H](C)O)C(C)C)C(C)C)C(=O)O)C(=O)O` [SEQ ID NO: 8], the “hGCGR/hGLP1R (hTone)” value in test [1] worked out at 0.60. In test [2], this compound returned a weight loss of 8 grams. Further, the “weight loss, percent relative to vehicle” value in test [3] (9 nmol/kg daily) is listed as “approximately 17%”; in test [3] (15 nmol/kg daily), “approximately 25%”. In addition, the “decrease in ambient glucose” value in test [4] (9 nmol/kg, day 9) was -72 mg/dL.
Regarding `CCCCCCCCCCCCCCCC(=O)N[C@@H](CCC(=O)N[C@@H](CCC(=O)NCCCC[C@H](NC(=O)[C@H](CC(=O)O)NC(=O)[C@H](CO)NC(=O)[C@@H](NC(=O)[C@H](Cc1ccccc1)NC(=O)[C@@H](NC(=O)CNC(=O)[C@@H](NC(=O)C(C)(C)NC(=O)[C@@H](N)Cc1c[nH]cn1)C(C)C)[C@@H](C)O)[C@@H](C)O)C(=O)N[C@@H](CO)C(=O)N[C@@H](CCCCN)C(=O)N[C@@H](Cc1ccc(O)cc1)C(=O)N[C@@H](CC(C)C)C(=O)N[C@@H](CC(=O)O)C(=O)NC(C)(C)C(=O)N[C@@H](CCCNC(=N)N)C(=O)N[C@@H](C)C(=O)N[C@@H](C)C(=O)N[C@@H](CCC(N)=O)C(=O)N[C@@H](CC(=O)O)C(=O)N[C@@H](Cc1ccccc1)C(=O)N[C@H](C(=O)N[C@@H](CCC(N)=O)C(=O)N[C@@H](Cc1c[nH]c2ccccc12)C(=O)N[C@@H](CC(C)C)C(=O)N[C@@H](CCCC)C(=O)N[C@@H](CC(=O)O)C(=O)N[C@H](C(N)=O)[C@@H](C)O)C(C)C)C(=O)O)C(=O)O` [SEQ ID NO: 9], in test [1], the 50% effective concentration (EC50) amounted to 0.89 nM and the “hGCGR/hGLP1R (hTone)” value is given as 8.98. Further, the concentration giving a half-maximal response (EC50) in test [5] worked out at 0.1 nM. This compound gave a weight loss in test [2] of about 3 grams. For the same compound, the body weight loss in test [2] (25 nmol/kg daily) is given as 10.5 grams. Besides, in test [3] (9 nmol/kg daily), the “weight loss, percent relative to vehicle” value is on record as “approximately 5%”. In addition, the “changes in ambient glucose” value in test [4] (9 nmol/kg) is “did not exhibit significant changes”. Also, the “decrease in ambient glucose” value in test [4] (25 nmol/kg, second day of dosing) is -75 mg/dL.
Take `CCCCCCCCCCCCCCCC(=O)N[C@@H](CCC(=O)N[C@@H](CCC(=O)NCCCC[C@H](NC(=O)[C@H](CC(=O)O)NC(=O)[C@H](CO)NC(=O)[C@@H](NC(=O)[C@H](Cc1ccccc1)NC(=O)[C@@H](NC(=O)CNC(=O)[C@H](CCC(N)=O)NC(=O)[C@@H](CO)NC(=O)[C@@H](N)Cc1c[nH]cn1)[C@@H](C)O)[C@@H](C)O)C(=O)N[C@@H](CO)C(=O)N[C@@H](CCCCN)C(=O)N[C@@H](Cc1ccc(O)cc1)C(=O)N[C@@H](CC(C)C)C(=O)N[C@@H](CC(=O)O)C(=O)N[C@@H](CCC(=O)O)C(=O)N[C@@H](CCCNC(=N)N)C(=O)N[C@@H](C)C(=O)N[C@@H](C)C(=O)N[C@@H](CCC(N)=O)C(=O)N[C@@H](CC(=O)O)C(=O)N[C@@H](Cc1ccccc1)C(=O)N[C@H](C(=O)N[C@@H](CCC(N)=O)C(=O)N[C@@H](Cc1c[nH]c2ccccc12)C(=O)N[C@@H](CC(C)C)C(=O)N[C@@H](CCS(C)(=O)=O)C(=O)N[C@@H](CC(=O)O)C(=O)N[C@H](C(N)=O)[C@@H](C)O)C(C)C)C(=O)O)C(=O)O` [SEQ ID NO: 15]: the EC50 in test [1] and in test [5] was 0.02 nM throughout. Also, in test [1], the “hGCGR/hGLP1R (hTone)” value was determined as 1.10.
For the compound `CCCCCCCCCCCCCCCC(=O)N[C@@H](CCC(=O)N[C@@H](CCC(=O)NCc1ccc(C[C@H](NC(=O)[C@H](CC(=O)O)NC(=O)[C@H](CO)NC(=O)[C@@H](NC(=O)[C@H](Cc2ccccc2)NC(=O)[C@@H](NC(=O)CNC(=O)[C@H](CCC(N)=O)NC(=O)[C@@H](CO)NC(=O)[C@@H](N)Cc2c[nH]cn2)[C@@H](C)O)[C@@H](C)O)C(=O)N[C@@H](CO)C(=O)N[C@@H](CCCCN)C(=O)N[C@@H](Cc2ccc(O)cc2)C(=O)N[C@@H](CC(C)C)C(=O)N[C@@H](CC(=O)O)C(=O)N[C@@H](C)C(=O)N[C@@H](CCCNC(=N)N)C(=O)N[C@@H](C)C(=O)N[C@@H](C)C(=O)N[C@@H](CCC(N)=O)C(=O)N[C@@H](CC(=O)O)C(=O)N[C@@H](Cc2ccccc2)C(=O)N[C@H](C(=O)N[C@@H](CCC(N)=O)C(=O)N[C@@H](Cc2c[nH]c3ccccc23)C(=O)N[C@@H](CC(C)C)C(=O)N[C@@H](CC(C)C)C(=O)N[C@@H](CC(=O)O)C(=O)N[C@H](C(N)=O)[C@@H](C)O)C(C)C)cc1)C(=O)O)C(=O)O` [SEQ ID NO: 17, His^1-D-Ser^2-Gln-Gly-Thr-Phe-Thr-Ser-Asp-pAF^10(γGlu-γGlu-C16)-Ser-Lys-Tyr-Leu-Asp^15-Ala^16-Arg-Ala-Ala-Gln-Asp-Phe^22-Val^23-Gln-Trp^25-Leu-Leu-Asp-Thr-CONH2] (H-H[dS]QGTFTSD[Phe(4-CH2NH2)]([γGlu-γGlu-Palmitoyl])SKYLDARAAQDFVQWLLDT-NH2), the half-maximal effective concentration (EC50) in test [1] and in test [5] was 0.05 nM throughout. For the same compound, the “hGCGR/hGLP1R (hTone)” value in test [1] is 0.98.
